Experiments:
[1] = target: recombinant Dictyostelium miozin (Dictyostelium) (Dictyostelium discoideum, UniProt P08799); experiment: actomyosin steady state ATPase measurement, Dictyostelium myosin; format: biochemical; conditions: for IC50: concentration required for semi-maximal inhibition of ATPase, read-out: IC50 (μM) Dicty; for % inhibition. complete Dicty: maximum value of inhibition of ATPase activity; for inhibition at 5 µM: read-out: % inhibition at 5 μM (or 10 μM if racemate) Dicty; for inhibition at 50 µM: read-out: % inhibition at 50 μM (or 100 μM if racemate) Dicty
Text: (§1) […]; (ii) the concentration required for semi-maximal inhibition.

[2] = target: recombinant human non-muscle myosin 2 NM2A (Homo sapiens, UniProt P35579); experiment: actomyosin steady state ATPase measurement, NM2A; format: biochemical; conditions: for IC50: concentration required for semi-maximal inhibition of ATPase; for % inhibition. complete NM2A: maximum value of inhibition of ATPase activity; for inhibition at 5 µM: read-out: % inhibition at 5 μM (or 10 μM if racemate) NM2A, 5 μM (10 μM if racemate); for inhibition at 5 µM / inhibition at 50 µM: ATPase activity; for inhibition at 50 µM: read-out: % inhibition at 50 μM (or 100 μM if racemate) NM2A, 50 μM (100 μM if racemate)
Text: as §1

[3] = target: recombinant human non-muscle myosin 2 NM2B (Homo sapiens, UniProt P35580); experiment: actomyosin steady state ATPase measurement, NM2B; format: biochemical; conditions: for IC50: concentration required for semi-maximal inhibition of ATPase; for % inhibition. complete NM2B: maximum value of inhibition of ATPase activity; for inhibition at 5 µM: read-out: % inhibition at 5 μM (or 10 μM if racemate) NM2B, 5 μM (10 μM if racemate); for inhibition at 5 µM / inhibition at 50 µM: ATPase activity; for inhibition at 50 µM: read-out: % inhibition at 50 μM (or 100 μM if racemate) NM2B, 50 μM (100 μM if racemate)
Text: as §1

[4] = target: recombinant human non-muscle myosin 2 NM2C (Homo sapiens, UniProt Q7Z406); experiment: actomyosin steady state ATPase measurement, NM2C; format: biochemical; conditions: for IC50: concentration required for semi-maximal inhibition of ATPase; for % inhibition. complete NM2C: maximum value of inhibition of ATPase activity; for inhibition at 5 µM: read-out: % inhibition at 5 μM (or 10 μM if racemate) NM2C, 5 μM (10 μM if racemate); for inhibition at 5 µM / inhibition at 50 µM: ATPase activity; for inhibition at 50 µM: read-out: % inhibition at 50 μM (or 100 μM if racemate) NM2C, 50 μM (100 μM if racemate)
Text: as §1

[5] = target: T1, isolated porcine cardiac ventricular myocardium (cardiac) (Sus scrofa, UniProt P79293); experiment: actomyosin steady state ATPase measurement, cardiac myosin; format: biochemical; conditions: for IC50: concentration required for semi-maximal inhibition of ATPase; for % inhibition. complete cardiac: maximum value of inhibition of ATPase activity; for inhibition at 5 µM: read-out: % inhibition at 5 μM (or 10 μM if racemate) cardiac, 5 μM (10 μM if racemate); for inhibition at 5 µM / inhibition at 50 µM: ATPase activity; for inhibition at 50 µM: read-out: % inhibition at 50 μM (or 100 μM if racemate) cardiac, 50 μM (100 μM if racemate)
T1 construct: isolated porcine cardiac ventricular myocardium (cardiac); from tissue; host or cells: porcine cardiac ventricle
Text: as §1

[6] = system: isolated rabbit skeletal muscle myosin (skeletal); experiment: actomyosin steady state ATPase measurement, skeletal muscle myosin; format: biochemical; conditions: for % inhibition at 5 μM (or 10 μM if racemate) Skeletal: 5 μM (10 μM if racemate); for % inhibition at 5 μM (or 10 μM if racemate) Skeletal / % inhibition at 50 μM (or 100 μM if racemate) Skeletal: ATPase activity; for % inhibition at 50 μM (or 100 μM if racemate) Skeletal: 50 μM (100 μM if racemate); for IC50: concentration required for semi-maximal inhibition of ATPase; for % inhibition. complete Skeletal: maximum value of inhibition of ATPase activity
Text: as §1

[7] = target: isolated smooth muscle myosin (UniProt P10587); format: biochemical, chamois; conditions: concentration required for semi-maximal inhibition of ATPase
Text: (ii) the concentration required for semi-maximal inhibition.

[8] = target: isolated smooth muscle myosin (UniProt P10587); format: biochemical, chamois; conditions: for % inhibition at 5 μM (or 10 μM if racemate) Smooth: 5 μM (10 μM if racemate); for % inhibition at 5 μM (or 10 μM if racemate) Smooth / % inhibition at 50 μM (or 100 μM if racemate) Smooth: ATPase activity; for % inhibition at 50 μM (or 100 μM if racemate) Smooth: 50 μM (100 μM if racemate); for % inhibition. complete Smooth: maximum value of inhibition of ATPase activity
[9] = solubility in PBS in the presence of 1% DMSO; format: physicochemical; conditions: phosphate buffered saline with 1% DMSO, aqueous buffer, kinetic from dmso stock, PBS w/o Mg, Ca
M. quadriceps femoris = experiment: isometric force measurement of live, anesthetized rat M. quadriceps femoris due to electrical stimulation; format: in vivo
Experimental: (§2) The maximum isometric force induced by the stimulation was determined after intraperitoneal injection of some of the compounds of the invention. During the measurement, the following parameters of live anesthetized rats were continuously monitored: • a) heart rate • b) blood flow in the neck arteries • c) respiratory frequency • d) blood oxygen saturation ratio Results from live anesthetized rats are summarized in the table below.

[10] = vital parameters of live anesthetized rats monitored during isometric force measurement; format: in vivo; conditions: anesthetized rat; for Maximum change of vital parameters (%) blood flow: neck arteries
Experimental: as §2, with “ratio” for “ratio Results from live anesthetized rats are summarized in the table below.”

Sequence of isolated smooth muscle myosin (P10587 whole entry): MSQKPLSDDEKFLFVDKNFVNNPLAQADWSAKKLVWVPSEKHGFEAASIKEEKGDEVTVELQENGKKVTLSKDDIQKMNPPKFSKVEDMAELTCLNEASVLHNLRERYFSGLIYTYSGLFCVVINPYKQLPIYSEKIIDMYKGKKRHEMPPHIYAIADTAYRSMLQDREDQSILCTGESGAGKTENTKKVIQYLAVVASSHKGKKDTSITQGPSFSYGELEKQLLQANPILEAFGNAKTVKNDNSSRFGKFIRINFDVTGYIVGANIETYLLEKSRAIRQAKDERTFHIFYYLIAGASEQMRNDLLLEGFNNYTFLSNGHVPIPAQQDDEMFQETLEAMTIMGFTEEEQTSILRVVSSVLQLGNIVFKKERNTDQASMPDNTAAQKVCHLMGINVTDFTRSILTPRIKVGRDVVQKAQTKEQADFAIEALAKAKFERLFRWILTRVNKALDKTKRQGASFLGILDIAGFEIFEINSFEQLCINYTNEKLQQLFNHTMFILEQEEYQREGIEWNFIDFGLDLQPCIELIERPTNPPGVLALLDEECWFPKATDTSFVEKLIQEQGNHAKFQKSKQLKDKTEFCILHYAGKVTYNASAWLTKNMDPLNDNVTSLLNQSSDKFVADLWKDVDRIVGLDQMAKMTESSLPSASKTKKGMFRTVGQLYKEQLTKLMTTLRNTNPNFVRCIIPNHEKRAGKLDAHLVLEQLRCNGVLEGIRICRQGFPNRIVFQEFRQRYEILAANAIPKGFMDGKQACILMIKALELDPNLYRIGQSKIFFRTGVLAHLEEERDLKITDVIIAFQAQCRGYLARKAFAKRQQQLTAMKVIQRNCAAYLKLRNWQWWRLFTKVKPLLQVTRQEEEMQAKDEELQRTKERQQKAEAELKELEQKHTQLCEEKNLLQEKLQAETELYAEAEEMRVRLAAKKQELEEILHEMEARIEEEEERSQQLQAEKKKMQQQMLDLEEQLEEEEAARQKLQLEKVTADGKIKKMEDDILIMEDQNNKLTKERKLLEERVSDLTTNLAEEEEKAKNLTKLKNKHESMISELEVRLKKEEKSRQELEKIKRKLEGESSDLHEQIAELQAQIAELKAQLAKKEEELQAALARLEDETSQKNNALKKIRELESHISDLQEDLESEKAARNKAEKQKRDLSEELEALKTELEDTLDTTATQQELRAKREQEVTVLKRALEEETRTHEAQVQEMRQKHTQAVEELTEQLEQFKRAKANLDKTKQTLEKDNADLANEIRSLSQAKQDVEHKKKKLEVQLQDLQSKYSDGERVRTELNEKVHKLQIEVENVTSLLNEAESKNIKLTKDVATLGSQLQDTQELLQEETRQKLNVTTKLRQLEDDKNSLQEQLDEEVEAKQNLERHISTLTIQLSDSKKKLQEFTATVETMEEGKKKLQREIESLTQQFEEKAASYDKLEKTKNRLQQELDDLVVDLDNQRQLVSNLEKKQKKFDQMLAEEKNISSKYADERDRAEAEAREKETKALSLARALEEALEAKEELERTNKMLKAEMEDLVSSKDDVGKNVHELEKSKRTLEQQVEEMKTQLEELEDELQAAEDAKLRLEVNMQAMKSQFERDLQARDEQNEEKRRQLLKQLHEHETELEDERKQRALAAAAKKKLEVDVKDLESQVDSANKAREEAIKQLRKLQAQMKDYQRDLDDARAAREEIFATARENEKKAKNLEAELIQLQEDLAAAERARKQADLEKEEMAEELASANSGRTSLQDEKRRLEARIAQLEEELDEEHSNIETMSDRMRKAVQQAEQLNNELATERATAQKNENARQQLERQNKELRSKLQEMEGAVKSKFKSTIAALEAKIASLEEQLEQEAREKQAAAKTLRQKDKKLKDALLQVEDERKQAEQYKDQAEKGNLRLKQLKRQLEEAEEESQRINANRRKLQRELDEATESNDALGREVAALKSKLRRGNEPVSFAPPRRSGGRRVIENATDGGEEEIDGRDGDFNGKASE
Sequence of recombinant human non-muscle myosin 2 NM2B (P35580 whole entry): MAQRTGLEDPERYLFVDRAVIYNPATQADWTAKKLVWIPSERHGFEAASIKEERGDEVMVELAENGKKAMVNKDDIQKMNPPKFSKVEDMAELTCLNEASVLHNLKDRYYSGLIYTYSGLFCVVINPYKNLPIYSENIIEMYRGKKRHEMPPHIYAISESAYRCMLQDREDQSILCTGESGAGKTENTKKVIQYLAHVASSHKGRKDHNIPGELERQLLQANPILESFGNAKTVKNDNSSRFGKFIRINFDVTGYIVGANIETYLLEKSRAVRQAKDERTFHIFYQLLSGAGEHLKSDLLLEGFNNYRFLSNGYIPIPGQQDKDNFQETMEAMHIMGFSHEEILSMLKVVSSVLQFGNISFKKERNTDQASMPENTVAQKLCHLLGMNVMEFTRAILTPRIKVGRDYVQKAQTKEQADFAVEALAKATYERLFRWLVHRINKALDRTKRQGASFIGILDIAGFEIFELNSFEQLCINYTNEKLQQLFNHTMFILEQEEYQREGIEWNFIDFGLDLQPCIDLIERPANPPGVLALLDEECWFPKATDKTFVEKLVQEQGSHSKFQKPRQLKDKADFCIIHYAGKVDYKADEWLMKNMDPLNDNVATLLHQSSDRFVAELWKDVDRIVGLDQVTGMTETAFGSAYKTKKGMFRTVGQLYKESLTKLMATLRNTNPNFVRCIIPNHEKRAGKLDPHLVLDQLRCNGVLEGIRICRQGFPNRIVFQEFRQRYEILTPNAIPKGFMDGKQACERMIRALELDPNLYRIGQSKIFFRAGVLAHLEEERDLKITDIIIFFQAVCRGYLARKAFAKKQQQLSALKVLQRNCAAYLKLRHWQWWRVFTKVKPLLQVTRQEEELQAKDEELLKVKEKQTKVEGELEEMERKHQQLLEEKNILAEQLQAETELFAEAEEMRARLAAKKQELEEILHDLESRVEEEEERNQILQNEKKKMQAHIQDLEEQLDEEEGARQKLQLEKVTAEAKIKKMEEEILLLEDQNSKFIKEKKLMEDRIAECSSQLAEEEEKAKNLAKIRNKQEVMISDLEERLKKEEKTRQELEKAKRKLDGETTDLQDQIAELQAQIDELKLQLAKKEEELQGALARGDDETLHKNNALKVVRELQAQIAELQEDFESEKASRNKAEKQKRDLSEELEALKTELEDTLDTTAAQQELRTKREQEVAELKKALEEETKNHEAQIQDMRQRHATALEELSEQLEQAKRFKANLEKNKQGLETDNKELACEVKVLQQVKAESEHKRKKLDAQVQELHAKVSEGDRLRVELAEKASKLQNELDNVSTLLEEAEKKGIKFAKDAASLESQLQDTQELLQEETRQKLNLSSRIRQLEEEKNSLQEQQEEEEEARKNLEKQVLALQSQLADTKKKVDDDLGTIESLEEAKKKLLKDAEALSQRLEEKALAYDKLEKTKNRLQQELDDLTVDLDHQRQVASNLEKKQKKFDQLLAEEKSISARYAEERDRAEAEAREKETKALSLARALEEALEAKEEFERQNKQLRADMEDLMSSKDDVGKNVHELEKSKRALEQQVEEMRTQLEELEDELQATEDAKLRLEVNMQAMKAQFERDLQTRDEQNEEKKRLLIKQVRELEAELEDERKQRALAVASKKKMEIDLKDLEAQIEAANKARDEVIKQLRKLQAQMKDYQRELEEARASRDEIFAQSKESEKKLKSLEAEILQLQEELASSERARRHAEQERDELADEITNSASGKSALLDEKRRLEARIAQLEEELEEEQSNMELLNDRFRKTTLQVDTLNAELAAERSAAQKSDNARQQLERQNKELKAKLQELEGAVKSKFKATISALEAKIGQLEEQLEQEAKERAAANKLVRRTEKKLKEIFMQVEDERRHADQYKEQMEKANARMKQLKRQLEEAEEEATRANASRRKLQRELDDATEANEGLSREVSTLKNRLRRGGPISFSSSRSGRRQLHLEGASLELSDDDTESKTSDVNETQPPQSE

| Structure (SMILES) | IC50 [1] [µM] | % inhibition. complete Dicty [1] [%] | inhibition at 5 µM [1] [%] | inhibition at 50 µM [1] [%] | IC50 [4] [µM] | % inhibition. complete NM2C [4] [%] | inhibition at 5 µM [4] [%] | inhibition at 50 µM [4] [%] | IC50 [5] [µM] | % inhibition. complete cardiac [5] [%] | inhibition at 5 µM [5] [%] | inhibition at 50 µM [5] [%] | % inhibition at 5 μM (or 10 μM if racemate) Skeletal [6] [%] | % inhibition at 50 μM (or 100 μM if racemate) Skeletal [6] [%] | IC50 [6] [µM] | % inhibition. complete Skeletal [6] [%] | IC50 [7] [µM] | % inhibition at 5 μM (or 10 μM if racemate) Smooth [8] [%] | % inhibition at 50 μM (or 100 μM if racemate) Smooth [8] [%] | % inhibition. complete Smooth [8] [%] | also measured |
| --- | --- | --- | --- | --- | --- | --- | --- | --- | --- | --- | --- | --- | --- | --- | --- | --- | --- | --- | --- | --- | --- |
| O=C1c2sccc2N=C2N(c3ccccc3)CCC12O (stereo not drawn) [Compound 183, 7-Hydroxy-4-phenyl-10-thia-2,4-diazatricyclo[7.3.0.0^3,7]dodeca-1(9),2,11-trien-8-one] | 5 | 100 | 26 | 80 | 60 | 83 | 6 | 37 | 8 | 84 | 33 | 73 | 80 | 93 | 1 | 95 | 15 | 17 | 51 | 66 | IC50 [2]: 87 µM; % inhibition. complete NM2A [2]: 100%; inhibition at 5 µM [2]: 4%; inhibition at 50 µM [2]: 37%; IC50 [3]: 12 µM; % inhibition. complete NM2B [3]: 56%; inhibition at 5 µM [3]: 16%; inhibition at 50 µM [3]: 45% |
| O=C1c2cccnc2N=C2N(c3ccccc3)CCC12O (stereo not drawn) [Compound 189, 3a-Hydroxy-1-phenyl-1H,2H,3H,3aH,4H-pyrrolo[2,3-b]1,8-naphthyridin-4-one] | > 100 | – | 0 | 0 | 1 | – | 11 | 13 | 26 | 72 | 11 | 47 | 37 | 80 | 7 | 92 | 1 | 8 | 7 | 8 | IC50 [2]: 6 µM; Inhibition (%) NM2A ([2]; maximum inhibition, compounds in IC50 range 5-10 μM): 8%; % inhibition. complete NM2A [2]: 8%; inhibition at 5 µM [2]: 4%; inhibition at 50 µM [2]: 7%; IC50 [3]: > 100 µM; inhibition at 5 µM [3]: 0%; inhibition at 50 µM [3]: -5%; Inhibition (%) smooth ([8]; maximum inhibition, compounds in IC50 range 1-5 μM): 8% |
| Cc1cc2c(s1)N=C1N(c3ccccc3)CCC1(O)C2=O (stereo not drawn) [Compound 198, 9-Hydroxy-5-methyl-12-phenyl-4-thia-2,12-diazatricyclo[7.3.0.0^3,7]dodeca-1,3(7),5-trien-8-one] | 5 | 100 | 51 | 96 | 6.8 | 100 | 51 | 84 | 4 | 100 | 64 | 89 | 90 | 99 | 1 | 100 | 7.6 | 44 | 88 | 100 | IC50 [2]: 15 µM; % inhibition. complete NM2A [2]: 100%; inhibition at 5 µM [2]: 26%; inhibition at 50 µM [2]: 79%; IC50 [3]: 15.1 µM; % inhibition. complete NM2B [3]: 100%; inhibition at 5 µM [3]: 24%; inhibition at 50 µM [3]: 80%; Inhibition (%) cardiac ([5]; maximum inhibition, compounds in IC50 range 3-6 μM): 100% |
| Nc1ccc(N2CC[C@@]3(O)C(=O)c4ccsc4N=C23)cc1 [Compound 210, (9S)-12-(4-aminophenyl)-9-hydroxy-4-thia-2,12-diazatricyclo[7.3.0.0^3,7]dodeca-1,3(7),5-trien-8-one] | > 100 | 100 | 3 | 34 | 5.2 | 41 | 18 | 38 | 6 | 82 | 36 | 73 | 44 | 84 | 5.6 | 94 | 12.5 | 9 | 28 | 37 | IC50 [2]: > 100 µM; % inhibition. complete NM2A [2]: 100%; inhibition at 5 µM [2]: 0%; inhibition at 50 µM [2]: 14%; solubility [9]: 1360 µM |
| Cc1cc2c(s1)N=C1N(c3ccc(OC(F)(F)F)cc3)CCC1(O)C2=O (stereo not drawn) [Compound 223, 9-Hydroxy-5-methyl-12-[4-(trifluoromethoxy)phenyl]-4-thia-2,12-diazatricyclo[7.3.0.0^3,7]dodeca-1,3(7),5-trien-8-one] | 11.1 | 100 | 21 | 96 | 3 | 88 | 52 | 82 | 2.2 | 98 | 68 | 93 | 95 | 95 | 0.012 | 95 | 1.1 | 79 | 99 | 100 | Maximum change in isometric force at rear leg (%) (M. quadriceps femoris; 0.2 mg i.p.): 23%; Maximum change in isometric force at rear leg (%) (M. quadriceps femoris; 1 mg i.p.): 25%; Maximum change of vital parameters (%) heart rate ([10]; 0.2 mg i.p.): 5%; Maximum change of vital parameters (%) oxygen saturation ([10]; 0.2 mg i.p.): −10%; Maximum change of vital parameters (%) respiratory frequency ([10]; 0.2 mg i.p.): −13%; Maximum change of vital parameters (%) blood flow ([10]; 0.2 mg i.p.): 8%; Maximum change of vital parameters (%) heart rate ([10]; 1 mg i.p.): 19%; Maximum change of vital parameters (%) oxygen saturation ([10]; 1 mg i.p.): −7%; Maximum change of vital parameters (%) respiratory frequency ([10]; 1 mg i.p.): −22%; Maximum change of vital parameters (%) blood flow ([10]; 1 mg i.p.): 25% |
| O=C1c2ccncc2N=C2N(c3ccc(OC(F)(F)F)cc3)CCC12O (stereo not drawn) [Compound 238, 3a-Hydroxy-1-[4-(trifluoromethoxy)phenyl]-1H,2H,3H,3aH,4H-pyrrolo[2,3-b]1,7-naphthyridin-4-one] | 3.5 | 41 | 24 | 38 | 2.1 | 40 | 27 | 38 | 59 | 100 | 2 | 47 | 80 | 93 | 0.95 | 96 | 6.3 | 13 | 28 | 31 | Inhibition (%) Dicty ([1]; maximum inhibition, compounds in IC50 range 1-11 μM): 41%; Maximum change in isometric force at rear leg (%) (M. quadriceps femoris; 6 mg i.p.): 40%; Maximum change of vital parameters (%) heart rate ([10]; 6 mg i.p.): 3%; Maximum change of vital parameters (%) oxygen saturation ([10]; 6 mg i.p.): −12%; Maximum change of vital parameters (%) respiratory frequency ([10]; 6 mg i.p.): −18%; Maximum change of vital parameters (%) blood flow ([10]; 6 mg i.p.): −10% |
